Test results reported in patent US20100008938A1, “SELF ASSEMBLING AMPHIPHILIC POLYMERS AS ANTIVIRAL AGENTS” (priority 2007, published 2010).

Key:
[1] = Solubilization of dyes in aqueous polymer solution vs water, TLC spot comparison; details: for concentration in 50 mg/ml polymer: 50 mg/ml aqueous C16-Polymer A (Example 1), approximate, from TLC spot intensity
[2] = test system: ATCC VR-1520 (H2N1) Human influenza virus

| Structure (SMILES) | concentration in 50 mg/ml polymer [1] | solubility ([1]; deionized water (unbuffered), water, thermodynamic from solid) [µg/mL] | concentration in H2O ([1]; deionized water, unbuffered, room temperature) [ng/mL] | body weight loss ([2]; 7 days) [%] | increase in survival time ([2]; mouse, in vivo) [h] |
| --- | --- | --- | --- | --- | --- |
| O=C1OC2(c3cc(Cl)c(O)cc3Oc3cc(O)c(Cl)cc32)c2ccccc21 [Dichlorofluorescein, dichlorofluorescein] | approximately 5 mg/ml | ≥ 10 | – | – | – |
| Cc1ccccc1/N=N/c1ccc(/N=N/c2c(O)ccc3ccccc23)c(C)c1 [Sudan IV] | approximately 0.2 mg/ml | – | 0 | – | – |
| COC1(C(=O)O)CC(O)C(N)C(C(O)C(O)CO)O1 (stereo not drawn) [positive control, neuraminic acid β-methyl glycoside] | – | – | – | −9.8 | 2.94 |
